# How the values were obtained:
# [1] = tested on: Notch-induced HES1 transcription in U937 cells; test: Ligand (Delta-like 4)-mediated HES1 activation in U937 cells; conditions: recombinant DL-4 Notch ligand
# [2] = tested on: ICN1-induced activation of p6XCBS-luc; test: Notch-responsive reporter assay (p6XCBS-luc) in HeLa cells; format: cell-based
# Experimental: HeLa cells were co-transfected with 1 μg of a Notch-responsive firefly luciferase reporter containing 6 CSL-binding sites (p6XCBS-luc), 100 ng of TK-Renilla-luciferase vector (transfection control) and various amount (0.1-0.3-1 μg) of the MigR1-ICN1 expression vector. Transfections were performed in 6-wells plates using JetPEI reagent (Polyplus) according to manufacturer's instruction. Firefly luciferase activity was measured 24 hours post-transfection and normalized to Renilla luciferase expression. The values in the figures are Relative Luciferase Units (RLU) represented as fold induction over the luciferase activity measured in the absence of ICN1 (cells transfected with p6XCBS-luc and an empty vector).
# [3] = tested on: HES1, HEY1 and DTX1 expression in U937 cells; test: Notch-target gene expression in U937 cells without Notch activation (Q-RT-PCR); conditions: TCP 1 mM, S2101 30 μM
# [4] = tested on: Notch-activation complex (ICN1-CSL-MAML1); test: Immunopurification / coimmunoprecipitation from SupT1 nuclear extracts (western blot); design: species or system human
# Experimental: After two step affinity chromatography, protein complexes containing both tagged-proteins were peptide eluted and analyzed by western blot. For endogenous protein immunoprecipitations, nuclear extracts (500 μg-1 mg) were incubated with antibodies (1-2 μg) for 4 hr, followed by addition of 10 μL protein G Sepharose beads (Fast flow, Sigma) for 45 min before washing five times with 800 μL of buffer B015 in spin columns (Pierce).
# Cells were lysed in lysis buffer (50 mM Tris-HCl, 120 mM NaCl, 5 mM EDTA, 0.5% NP-40 and PMSF) and briefly sonicated. Cell lysates and immunoprecipitates were boiled in SDS sample buffer and resolved on a 7% SDS-PAGE gel (Biorad). Proteins were liquid-transferred (Biorad) to nitrocellulose membrane in transfer buffer (20% methanol, 25 mM Tris, 192 mM Glycine, 0.037% SDS) during 90 min at 100V.
# [5] = tested on: ICN1-binding sites of Notch-target genes; test: Chromatin immunoprecipitation (ChIP) in SupT1 cells; format: cell-based, human
# Experimental: For ChIP experiments, 6×10^7 cells were cross-linked for 10 min with 1% formaldehyde (sigma) at room temperature. The cross-linking reaction was stopped by adding glycine to a final concentration of 0.125 M for 10 min at room temperature. Cells were washed twice with cold PBS and incubated on ice for 7 min in 2 mL of buffer containing 15 mM Tris-HCl (pH 7.4), 0.3 M sucrose (sigma), 60 mM KCl, 15 mM NaCl, 5 mM MgCl2, 0.1 mM EGTA and 0.1% NP-40. Each cell suspension was then layered over 8 mL sucrose cushion (15 mM Tris-HCl, 1.2 M sucrose, 60 mM KCl, 15 mM NaCl, 5 mM MgCl2 and 0.1 mM EGTA) and centrifuged at 10.000 g for 20 min at 4° C. Nuclear pellet was lysed with 1 mL lysis buffer (50 mM Tris-HCl pH 8, 10 mM EDTA, 1% SDS) complemented with Protease Inhibitor Cocktail (Roche). Chromatin was sonicated to generate DNA-fragments of approximately 300 to 500 bp in an ultra sonicator water bath (Bioruptor, Diagenode) using ten cycles of 30 s/on and 30 s/off. After centrifugation at 13.000 g for 20 min, an aliquot of sonicated DNA was reverse-crosslinked by addition of 250 mM NaCl and incubation at 65° C. for 6 h. DNA was extracted by phenol-chloroform, quantified using nanodrop and run on a 1% agarose gel to confirm DNA fragment size. The antibodies were pre-bound to Invitogen Dynal magnetic beads (Protein A or G beads) in PBS containing BSA (5 mg/mL) and chromatin was pre-cleared with beads for 4 h at 4° C. Immunoprecipitation was performed using 20 μg of chromatin and 2-3 μg of antibody coupled to 15 μL of beads in ChIP buffer (20 mM Tri-HCl pH 8, 150 mM NaCl, 2 mM EDTA, and 1% Triton X-100) complemented with Protease Inhibitor Cocktail. After overnight incubation at 4° C., beads were washed 4 times with wash buffer 1 (20 mM Tri-HCl pH 8, 150 mM NaCl, 2 mM EDTA, 1% Triton X-100 and 0.1% SDS) and 4 times with wash buffer 2 (20 mM Tri-HCl pH 8, 500 mM NaCl, 2 mM EDTA, 1% Triton X-100 and 0.1% SDS) using the DynaMag-2 magnet (Invitogen). Elution of immunoprecipitated DNA was performed in buffer containing 1% SDS and 100 mM NaHCO3. Crosslinking was reversed by incubation at 65° C. and proteins were degraded by addition of proteinase K (Sigma). Eluted DNA and 10% of input DNA were purified using phenol-chloroform extraction followed by isopropanol precipitation or using QIAquick PCR purification (Qiagen), according to the manufacturer instructions. Resultant DNA was dissolved in 60 μL of water containing 10 mM Tris-HCl pH 8. […] PCR measurements were performed in duplicate.
# [6] = tested on: Notch-target genes in pre-T cells; test: ChIP in T-cell precursors from in vitro T-cell differentiation; format: cell-based, human; conditions: GSI 5 μM, 2 days
# Experimental: For ChIP experiments, 6×10^7 cells were cross-linked for 10 min with 1% formaldehyde (sigma) at room temperature. The cross-linking reaction was stopped by adding glycine to a final concentration of 0.125 M for 10 min at room temperature. Cells were washed twice with cold PBS and incubated on ice for 7 min in 2 mL of buffer containing 15 mM Tris-HCl (pH 7.4), 0.3 M sucrose (sigma), 60 mM KCl, 15 mM NaCl, 5 mM MgCl2, 0.1 mM EGTA and 0.1% NP-40. Each cell suspension was then layered over 8 mL sucrose cushion (15 mM Tris-HCl, 1.2 M sucrose, 60 mM KCl, 15 mM NaCl, 5 mM MgCl2 and 0.1 mM EGTA) and centrifuged at 10.000 g for 20 min at 4° C. Nuclear pellet was lysed with 1 mL lysis buffer (50 mM Tris-HCl pH 8, 10 mM EDTA, 1% SDS) complemented with Protease Inhibitor Cocktail (Roche). […] DNA was extracted by phenol-chloroform, quantified using nanodrop and run on a 1% agarose gel to confirm DNA fragment size. […]
# CD34+ cells from human umbilical cord blood samples were sorted (Stemcell technologies) (≧95% purity) and cultured on OP9-DL1 stromal cells in αMEM media containing FLT3L (5 ng/ml), and IL7 (5 ng/ml) for 16 days. At day 16, most progenitors (˜90%) were engaged to the T-cell lineage (pre-T cells) as determined by the expression of CD5 and CD1a. pre-T-cells were cultured for 2 additional days on OP9-DL1 cells in presence or absence of GSI (5 μM).
# [7] = tested on: Notch-responsive genes in SupT1 cells; test: Notch-responsive gene expression in GSI-treated SupT1 cells
# [8] = tested on: monoamine oxidases; conditions: compared with TCP; cited from earlier work
# [9] = tested on: Notch-target genes in T-ALL cells; test: Notch-target gene expression in T-ALL cell lines (Q-RT-PCR)
# [10] = tested on: SupT1 xenograft tumor; test: Subcutaneous xenograft tumor model; format: in vivo; conditions: SupT1 cells expressing shRNA, SCID mice
# Experimental: Female SCID mice (C.B.-17/IcrHan™Hsd-Prkdcscid) were obtained from Harlan Laboratories (Gannat, France). Animals were maintained in specific pathogen-free animal housing at the Center for Exploration and Experimental Functional Research (CERFE, Evry, France) animal facility. […] 72 hours post-infection, cells were selected with 2 μg/mL puromycin for 72 hours. At this point, the cells were maintained in fresh media for 2 days prior to injection into animals. Prior injection, cells were washed and resuspended in DMEM: 50% Matrigel (BD Pharmingen). 5×10^6 cells […] were injected to each mouse by subcutaneous route in the right flank (n=5 per group). Tumor volume was evaluated by measuring tumor diameters, with a calliper, three times a week during the follow-up period (23 days). The formula TV (mm^3)=[length (mm)×width (mm)2]/2 was used, where the length and the width are the longest and the shortest diameters of the tumor, respectively.
# [11] = tested on: SupT1, HPB-ALL, TALL1 and DND41; test: Cell count proliferation assay of T-ALL cell lines; format: cell-based, human; conditions: shRNA knockdown
# Experimental: (§1) The following antibodies were used for flow cytometry: CD127-PE clone R34.34 and the IgG1-PE (from Beckman Coulter). Flow cytometry was performed on a BD FACSCalibur or MACSQUANT cytometer (Miltenyi). For cell proliferation assays, cells were plated at 2×10^5/mL in triplicate. Proliferation of shRNA-transduced T-ALL cells was followed by cell counting using the MACSQUANT cytometer (gated on live cells). Flow-cytometric cell cycle analysis was performed by staining DNA content of T-ALL cell lines using DAPI. SupT1 cells were also analyzed with EdU-DAPI staining to precisely define the percentage of cells at the G0/G1 phase. […] Cells were washed with PBS and fixed with PBS-4% PFA for 10 minutes at room temperature. After permeabilization, EdU incorporation was detected following the manufacturer's instructions (Click-iT, invitrogen) and total DNA content was measured using DAPI.
# [12] = tested on: T-ALL cell lines; test: Flow-cytometric cell cycle analysis of T-ALL cell lines; format: cell-based, human; conditions: shRNA knockdown
# Experimental: as §1
molecule,measurement,setting,value
"N[C@@H]1C[C@H]1c1ccccc1 (racemic) [TCP, tranylcypromine]",Notch-induced HES1 activation,[1],reduced HES1 activation
same,ICN1-induced activation of the Notch-responsive reporter (p6XCBS-luc),[2],impaired
same,"HES1, HEY1 and DTX1 expression",[3],increased
C[C@H](NC(=O)Cc1cc(F)cc(F)c1)C(=O)N[C@H]1N=C(c2ccccc2)c2ccccc2N(C)C1=O [GSI],"MAML1 association with CSL, LSD1, PB1 and BRG1","[4]; SupT1, GSI 500 nM, 8 hours",severely altered
same,binding of PHF8 and AF4p12 to MAML1,"[4]; SupT1, GSI 500 nM, 8 hours",only marginally reduced
same,LSD1 binding to endogenous MAML1 and ICN1,[4]; SupT1 cells treated with DMSO or GSI,strongly reduced
same,H3K27me2 mark at IL7R and DTX1 loci,[5]; SupT1,increase
same,CSL and LSD1 binding,"[5]; SupT1, ICN1-binding sites",did not significantly affect
same,ICN1 and MAML1 on chromatin,"[5]; SupT1, ICN1-binding sites",released
same,"recruitment of PBAF, PHF8 and AF4p12","[5]; SupT1, ICN1-binding sites",reduced
same,RNAPII recruitment to Notch-target genes,[6],impaired
NC1CC1c1cc(F)cc(F)c1OCc1ccccc1 (stereo not shown) [S2101],expression of Notch-responsive genes,[7],depression of Notch-responsive genes
same,expression of the control S14 gene,[7],not affected
same,Notch-induced HES1 activation,[1],reduced HES1 activation
same,effect on monoamine oxidases,[8],much weaker effect
same,"HES1, HEY1 and DTX1 expression",[3],increased
same,Notch-target genes expression on LSD1 inhibitor treatment,[9],dose-dependent repression
"PHF8 shRNA: shRNA targeting PHF8, SEQ ID NO: 1; pSUPER retroviral vector (GCTTCATGATCGAGTGTGACA)",tumor establishment,[10],did not establish tumors
same,proliferation,[11],marked reduction
same,cell-cycle progression in MOLT4 and H9,[12]; Notch-independent T-ALL cell lines,did not significantly affect
same,cell cycle in NOTCH1-dependent T-ALL cells,[12],G0/G1 cell-cycle arrest
same,Notch-mediated expression of c-MYC,[9]; shRNA knockdown,suppressed

# — patent US20150276760A1, “Method for Screening a Compound Capable of Inhibiting the Notch1 Transcriptional Activity” (INSERM (institut National de la Sante et de la Recherche …, priority 2012, published 2015)
